Consider two compounds from US5274080A, “Monospecific antibodies useful in evaluating inhibition of polymorphonuclear leukocyte elastase by N-substituted azetidinones” (Merck & Co., Inc., priority 1991, dated 1993).

In this assay the test system is antibody R674. In words: Radioimmune assay: displacement of tritium labeled reactivation product from antibody R674. The assay is classed as binding, rabbit. The settings on record: up to 10 μM (the highest concentration tested).

Procedure: Non-antibody-bound radioactive isotope was removed from the reaction mixture by its absorption onto dextran-coated activated charcoal. […] The activated charcoal was then suspended to 3% (w/v) in PBS dextran and allowed to stand overnight, washed once again in PBS dextran and resuspended to 3% (w/v) in PBS dextran and stored at 4° C. Immediately before use in the assay, the dextran-coated activated charcoal was diluted 10-fold in DULBECCO's PBS and 1 ml was added to each assay tube. […] The supernatant fluid was decanted into 9 ml of AQUASOL-2 scintillation fluid and radioactivity counted in a beta-counter. Each assay contains charcoal free controls, to which 1 ml PBS was added, for determination of total counts (BO), and antibody free controls for determination of non-specific binding. Percent specific binding was determined by subtracting the value for non-specific binding from the value of total antiserum binding and then dividing by the total radioactivity added.
Sensitivity of the antisera R674 (2nd bleed) was determined in the above RIA. The antiserum was diluted in PET/GEL buffer (1:12,000 final dilution in the 200 μl assay volume) as described above so that it binds 20-30% of the total radioactivity added. The same diluted stock was then used for all assay tubes within the same assay. […] The assay was set up on a competition basis. […]

On to `NC(N)=O` [Urea], for which the effect on displacement result was “without effect”.
Consider `N=C(N)NCCC[C@H](N)C(=O)O` [arginine], for which the effect on displacement result is “without effect”.
